The target in experiment [1] is T1, MKNK1 (Homo sapiens, UniProt Q9BUB5, T385D).
T1 construct: GST (N); purchased Carna Biosciences 02-145; host or cells: insect cells (baculovirus expression system)
The experiment in a line: MKNK1 kinase high ATP assay (TR-FRET). It is filed as biochemical. Particulars: ATP final conc. 2 mM; 15 min pre-incubation; reaction time 30 min at 22°C. The method, then:
MKNK1-inhibitory activity at high ATP of compounds of the present invention after their preincubation with MKNK1 was quantified employing the TR-FRET-based MKNK1 high ATP assay as described in the following paragraphs.
As substrate for the kinase reaction the biotinylated peptide biotin-Ahx-[…] (C-terminus in amide form) was used, which can be purchased e.g. from the company Biosyntan (Berlin-Buch, Germany).
For the assay 50 nL of a 100fold concentrated solution of the test compound in DMSO was pipetted into a black low volume 384well microtiter plate (Greiner Bio-One, Frickenhausen, Germany), 2 µL of a solution of MKNK1 in aqueous assay buffer [50 mM HEPES pH 7.5, 5 mM magnesium chloride, 1.0 mM dithiothreitol, 0.005% (v/v) Nonidet-P40 (Sigma)] was added and the mixture was incubated for 15 min at 22°C to allow pre-binding of the test compounds to the enzyme before the start of the kinase reaction. Then the kinase reaction was started by the addition of 3 µL of a solution of adenosine-tri-phosphate (ATP, 3.3 mM => final conc. in the 5 µL assay volume is 2 mM) and substrate (0.1 µM => final conc. in the 5 µL assay volume is 0.06 µM) in assay buffer and the resulting mixture was incubated for a reaction time of 30 min at 22°C. The concentration of MKNK1 was adjusted depending of the activity of the enzyme lot and was chosen appropriate to have the assay in the linear range, typical concentrations were in the range of 0.003 µg/mL. The reaction was stopped by the addition of 5 µL of a solution of TR-FRET detection reagents (5 nM streptavidine-XL665 [Cisbio Bioassays, Codolet, France] and 1 nM anti-ribosomal protein S6 (pSer236)-antibody from Invitrogen [# 44921G] and 1 nM LANCE EU-W1024 labeled ProteinG [Perkin-Elmer, product no. AD0071]) in an aqueous EDTA-solution (100 mM EDTA, 0.1 % (w/v) bovine serum albumin in 50 mM HEPES pH 7.5).
(§1) The resulting mixture was incubated for 1 h at 22°C to allow the formation of complex between the phosphorylated biotinylated peptide and the detection reagents. Subsequently the amount of phosphorylated substrate was evaluated by measurement of the resonance energy transfer from the Eu-chelate to the streptavidine-XL. Therefore, the fluorescence emissions at 620 nm and 665 nm after excitation at 350 nm were measured in a TR-FRET reader, e.g. a Rubystar (BMG Labtechnologies, Offenburg, Germany) or a Viewlux (Perkin-Elmer). The ratio of the emissions at 665 nm and at […] was taken as the measure for the amount of phosphorylated substrate. The data were normalised (enzyme reaction without inhibitor = 0 % inhibition, all other assay components but no enzyme = 100 % inhibition).
(Time-resolved FRET reads energy transfer from a long-lived donor to a nearby acceptor.)

Experiment [2] concerns the target T1, MKNK1. The experiment is described as follows: MKNK1 kinase assay (TR-FRET). It is filed as biochemical. Particulars: ATP final conc. 10 µM; 15 min pre-incubation; reaction time 45 min at 22°C. The method, then: MKNK1-inhibitory activity of compounds of the present invention was quantified employing the MKNK1 TR-FRET assay as described in the following paragraphs.
As substrate for the kinase reaction the biotinylated peptide biotin-Ahx-[…] (C-terminus in amide form) was used which can be purchased e.g. form the company Biosyntan (Berlin-Buch, Germany).
For the assay 50 nL of a 100fold concentrated solution of the test compound in DMSO was pipetted into a black low volume 384well microtiter plate (Greiner Bio-One, Frickenhausen, Germany), 2 µL of a solution of MKNK1 in aqueous assay buffer [50 mM HEPES pH 7.5, 5 mM magnesium chloride, 1.0 mM dithiothreitol, 0.005% (v/v) Nonidet-P40 (Sigma)] was added and the mixture was incubated for 15 min at 22°C to allow pre-binding of the test compounds to the enzyme before the start of the kinase reaction. Then the kinase reaction was started by the addition of 3 µL of a solution of adenosine-tri-phosphate (ATP, 16.7 µM => final conc. in the 5 µL assay volume is 10 µM) and substrate (0.1 µM => final conc. in the 5 µL assay volume is 0.06 µM) in assay buffer and the resulting mixture was incubated for a reaction time of 45 min at 22°C.
as §1, with “inhibition). […] Table 1: MKNK1 IC50s” for “inhibition).”

The term IC50 denotes the midpoint of a concentration-inhibition curve.

T1 sequence (Q9BUB5 1-424 isoform Q9BUB5-2 T344D): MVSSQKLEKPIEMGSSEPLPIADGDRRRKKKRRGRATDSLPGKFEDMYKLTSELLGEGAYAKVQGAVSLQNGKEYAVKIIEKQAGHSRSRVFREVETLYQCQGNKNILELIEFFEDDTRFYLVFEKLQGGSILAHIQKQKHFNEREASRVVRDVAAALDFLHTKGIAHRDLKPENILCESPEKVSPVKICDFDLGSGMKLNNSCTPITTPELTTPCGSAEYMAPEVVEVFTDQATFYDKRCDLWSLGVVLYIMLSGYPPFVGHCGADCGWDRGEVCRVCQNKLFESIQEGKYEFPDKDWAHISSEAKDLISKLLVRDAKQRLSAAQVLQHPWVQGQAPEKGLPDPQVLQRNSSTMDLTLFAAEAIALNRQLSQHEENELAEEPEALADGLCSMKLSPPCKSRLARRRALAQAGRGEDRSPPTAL

Consider `COc1cccc2oc(-c3cnc4ccc(OCC(N)C5CC5)nn34)cc12` (stereo not shown) [Example 41, 1-Cyclopropyl-2-{[3-(4-methoxy-1-benzofuran-2-yl)imidazo[1,2-b]pyridazin-6-yl]oxy}ethanamine], for which the figures for the IC50 in experiment [1] and in experiment [2] were 27 nM and 12 nM, respectively.
On to `C[C@@H](N)COc1ccc2ncc(-c3cc4ccccc4o3)n2n1` [Example 42, (2R)-1-{[3-(1-Benzofuran-2-yl)imidazo[1,2-b]pyridazin-6-yl]oxy}propan-2-amine], for which the IC50 in experiment [1] was found to be 43 nM; in experiment [2] it was 15 nM.
For `C[C@@H](N)COc1ccc2ncc(-c3cc4cc(Cl)ccc4o3)n2n1` [Example 43, (2R)-1-{[3-(5-Chloro-1-benzofuran-2-yl)imidazo[1,2-b]pyridazin-6-yl]oxy}-propan-2-amine] the same measures were 62 nM and 33 nM.
For `NCC1(COc2ccc3ncc(-c4cc5ccccc5o4)n3n2)COC1` [Example 44, 1-[3-({[3-(1-Benzofuran-2-yl)imidazo[1,2-b]pyridazin-6-yl]oxy}methyl)oxetan-3-yl]methanamine] the same measures were 63 nM and 52 nM.
For `C[C@H](N)COc1ccc2ncc(-c3cc4c(F)cccc4o3)n2n1` [Example 45, (2S)-1-{[3-(4-Fluoro-1-benzofuran-2-yl)imidazo[1,2-b]pyridazin-6-yl]oxy}-propan-2-amine], in that order: 71 nM and 17 nM.
As to `N[C@H](COc1ccc2ncc(-c3cc4c(F)cccc4o3)n2n1)c1ccccc1` [Example 46, (1S)-2-{[3-(4-Fluoro-1-benzofuran-2-yl)imidazo[1,2-b]pyridazin-6-yl]oxy}-1-phenylethanamine], the IC50 was 67 nM in experiment [1] and 36 nM in experiment [2].
For `C[C@H](CN)Oc1ccc2ncc(-c3cc4cccc(F)c4o3)n2n1` [Example 48, (2R)-2-{[3-(7-Fluoro-1-benzofuran-2-yl)imidazo[1,2-b]pyridazin-6-yl]oxy}-propan-1-amine], in that order: 115 nM and 71 nM.
For `Cc1ccc2oc(-c3cnc4ccc(O[C@H](C)CN)nn34)cc2c1` [Example 49], the IC50 in experiment [1] came out at 154 nM; in experiment [2], 88 nM.
For `N[C@H](COc1ccc2ncc(-c3cc4ccccc4o3)n2n1)Cc1ccccc1` [Example 50, (2S)-1-{[3-(1-Benzofuran-2-yl)imidazo[1,2-b]pyridazin-6-yl]oxy}-3-phenyl-propan-2-amine] the same measures were 54 nM and 27 nM.
For `NC1(COc2ccc3ncc(-c4cc5ccccc5o4)n3n2)CC1` [Example 51, 1-({[3-(1-Benzofuran-2-yl)imidazo[1,2-b]pyridazin-6-yl]oxy}methyl)cyclo-propanamine], in that order: 74 nM and 29 nM.
`NCC(COc1ccc2ncc(-c3cc4ccccc4o3)n2n1)c1ccccc1` (stereo not shown) [Example 52, 3-{[3-(1-Benzofuran-2-yl)imidazo[1,2-b]pyridazin-6-yl]oxy}-2-phenylpropan-1-amine]: the IC50 in experiment [1] was 30 nM; in experiment [2] it was 17 nM.

For the origin of these results see EP2758401B1 (Bayer Intellectual Property GmbH, priority 2011, dated 2013).
